Laboratory results: ChEMBL document CHEMBL4828771, “Discovery and Development of a Potent, Selective, and Orally Bioavailable CHK1 Inhibitor Candidate: 5-((4-((3-Amino-3-methylbutyl)amino)-5-(trifluoromethyl)pyrimidin-2-yl)amino)picolinonitrile” (J Med Chem, 2021)

How the values were obtained:
[1] = target: T1, Serine/threonine-protein kinase Chk1 (Homo sapiens, UniProt O14757); assay: Inhibition of CHK1 (unknown origin) incubated for 1 hr in presence of ATP by HTRF assay
T1 sequence (O14757 whole entry): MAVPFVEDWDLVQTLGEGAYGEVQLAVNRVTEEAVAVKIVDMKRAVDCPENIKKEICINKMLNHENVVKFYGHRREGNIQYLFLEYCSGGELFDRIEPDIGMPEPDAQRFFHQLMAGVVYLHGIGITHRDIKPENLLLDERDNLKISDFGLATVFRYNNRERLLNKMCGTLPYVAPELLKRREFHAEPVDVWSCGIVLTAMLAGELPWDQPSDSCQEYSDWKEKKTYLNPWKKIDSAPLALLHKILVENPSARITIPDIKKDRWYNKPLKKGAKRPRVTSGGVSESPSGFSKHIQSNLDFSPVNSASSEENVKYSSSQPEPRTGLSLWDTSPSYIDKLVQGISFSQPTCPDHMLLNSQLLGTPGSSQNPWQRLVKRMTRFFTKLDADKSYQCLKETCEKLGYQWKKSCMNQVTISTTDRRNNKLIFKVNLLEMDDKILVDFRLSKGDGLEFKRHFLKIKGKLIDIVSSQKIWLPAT

MV4-11 = assay: Antiproliferation activity against human MV4-11 cells assessed as reduction in cell viability incubated for 72 hrs by MTS assay; assay type: functional, cell-based; settings: MV4-11, 72 h
Z-138 = assay: Antiproliferation activity against human Z138 cells assessed as reduction in cell viability incubated for 72 hrs by MTS assay; assay type: functional, cell-based; settings: Z-138, 72 h
hERG (KCNH2) = hERG (KCNH2) (Homo sapiens, UniProt Q12809); assay: Inhibition of human ERG expressed in HEK293 cells at 10 uM by patch-clamp technique relative to control; assay type: cell-based; settings: HEK293 cells that express hERG
[2] = Half life in ICR mouse at 20 mg/kg, po measured after 0.083 to 48 hrs by LC-MS/MS analysis; assay type: ADME, organism-based; settings: in vivo, time 0.083-48 hrs
[3] = Tmax in ICR mouse at 20 mg/kg, po measured after 0.083 to 48 hrs by LC-MS/MS analysis; assay type: ADME, organism-based; settings: in vivo, time 0.083-48 hrs
[4] = Cmax in ICR mouse at 20 mg/kg, po measured after 0.083 to 48 hrs by LC-MS/MS analysis; assay type: ADME, organism-based; design: route oral, time upper 48 hrs, time lower 0.083 hrs, dose 20 mg/kg; settings: in vivo
[5] = AUCt in ICR mouse at 20 mg/kg, po measured after 0.083 to 48 hrs by LC-MS/MS analysis; assay type: ADME, organism-based; design: route oral, dose 20 mg/kg, time 0.083-48 hrs; settings: in vivo
[6] = AUC (0 to infinity) in ICR mouse at 20 mg/kg, po measured after 0.083 to 48 hrs by LC-MS/MS analysis; assay type: ADME, organism-based; design: route oral, time upper 48 hrs, time lower 0.083 hrs, dose 20 mg/kg; settings: in vivo
[7] = MRT (0 to infinity) in ICR mouse at 20 mg/kg, po measured after 0.083 to 48 hrs by LC-MS/MS analysis; assay type: ADME, organism-based; settings: in vivo, time 0.083-48 hrs

hERG (KCNH2), sequence (Q12809 whole entry): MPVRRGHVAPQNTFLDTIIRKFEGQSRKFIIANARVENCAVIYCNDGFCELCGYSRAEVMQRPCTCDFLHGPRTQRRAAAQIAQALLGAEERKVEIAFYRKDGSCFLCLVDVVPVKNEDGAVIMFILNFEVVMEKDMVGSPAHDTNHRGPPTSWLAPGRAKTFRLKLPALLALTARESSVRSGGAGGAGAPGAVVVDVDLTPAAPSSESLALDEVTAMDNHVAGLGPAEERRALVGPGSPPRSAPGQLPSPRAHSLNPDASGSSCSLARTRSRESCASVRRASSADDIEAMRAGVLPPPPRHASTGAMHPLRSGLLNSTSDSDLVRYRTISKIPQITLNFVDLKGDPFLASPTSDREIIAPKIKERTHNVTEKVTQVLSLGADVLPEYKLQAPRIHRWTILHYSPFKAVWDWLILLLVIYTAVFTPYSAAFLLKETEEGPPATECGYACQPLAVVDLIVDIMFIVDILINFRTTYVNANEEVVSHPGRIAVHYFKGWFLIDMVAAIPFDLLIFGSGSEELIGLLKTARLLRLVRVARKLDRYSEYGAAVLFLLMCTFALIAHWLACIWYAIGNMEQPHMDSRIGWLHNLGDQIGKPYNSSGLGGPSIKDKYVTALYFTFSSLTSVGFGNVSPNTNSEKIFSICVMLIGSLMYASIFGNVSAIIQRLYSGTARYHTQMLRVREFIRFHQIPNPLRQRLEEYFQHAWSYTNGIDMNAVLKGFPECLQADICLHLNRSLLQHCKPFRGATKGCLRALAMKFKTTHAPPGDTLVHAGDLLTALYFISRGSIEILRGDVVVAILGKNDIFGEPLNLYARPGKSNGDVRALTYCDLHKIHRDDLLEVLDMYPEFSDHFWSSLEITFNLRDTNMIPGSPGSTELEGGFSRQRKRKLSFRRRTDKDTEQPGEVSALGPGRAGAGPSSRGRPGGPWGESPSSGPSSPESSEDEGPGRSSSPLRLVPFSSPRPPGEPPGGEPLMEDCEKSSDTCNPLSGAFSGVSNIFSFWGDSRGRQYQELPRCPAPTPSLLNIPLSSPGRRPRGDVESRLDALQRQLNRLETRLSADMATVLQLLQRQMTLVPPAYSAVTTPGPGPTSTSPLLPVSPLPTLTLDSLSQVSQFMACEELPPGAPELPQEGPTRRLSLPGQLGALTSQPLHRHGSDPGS

Row | Compound | IC50 [1] [µM] | also measured
1 | N#Cc1ccc(Nc2ncc(C(F)(F)F)c(NC3CCNCC3)n2)cn1 | 0.12 | 
2 | N#Cc1ccc(Nc2ncc(C(F)(F)F)c(NC3CN4CCC3CC4)n2)cn1 (configuration not stated) | 0.307 | 
3 | CNc1nc(Nc2cnc(C#N)c(N[C@H]3CC[C@@H](N)CC3)c2)ncc1C(F)(F)F | 0.0085 | IC50 (MV4-11): 0.01 µM; IC50 (Z-138): 0.05 µM; inhibition at 10 µM (hERG (KCNH2)): 84.2%
4 | CNc1nc(Nc2cnc(C#N)c(N[C@H]3CCCNC3)c2)ncc1C(F)(F)F | 0.502 | 
5 | CNc1nc(Nc2cnc(C#N)c(N[C@@H]3CCN(C)C3)c2)ncc1C(F)(F)F | 0.119 | 
6 | N#Cc1ccc(Nc2ncc(C(F)(F)F)c(N[C@H]3CCCNC3)n2)cn1 | 0.0283 | IC50 (MV4-11): 0.27 µM; IC50 (Z-138): 0.16 µM; inhibition at 10 µM (hERG (KCNH2)): 74.6%
7 | N#Cc1ccc(Nc2ncc(C(F)(F)F)c(NC[C@H]3CCCNC3)n2)cn1 | 0.111 | 
8 | CS(=O)(=O)CCNCCCNc1nc(Nc2ccc(C#N)nc2)ncc1C(F)(F)F | 0.0243 | IC50 (MV4-11): 0.25 µM; IC50 (Z-138): 0.63 µM; inhibition at 10 µM (hERG (KCNH2)): 58.5%; half-life [2]: 2.38 h; Tmax [3]: 0.25 h; Cmax [4]: 1690 ng/mL; AUC(0-t) [5]: 2520 ng·h/mL; AUC(0-inf) [6]: 2710 ng·h/mL; MRT inf [7]: 2.42 h
9 | N#Cc1ccc(Nc2ncc(C(F)(F)F)c(NCCCNCCC(N)=O)n2)cn1 | 0.107 | 
10 | CNc1nc(Nc2cnc(C#N)c(N[C@H]3CCNC3)c2)ncc1C(F)(F)F | 0.0595 | 
11 | CNc1nc(Nc2cnc(C#N)c(NCCN(C)C)c2)ncc1C(F)(F)F | 0.034 | IC50 (MV4-11): 0.26 µM; IC50 (Z-138): 0.29 µM
12 | CNc1nc(Nc2cnc(C#N)c(NC3CCNCC3)c2)ncc1C(F)(F)F | 0.101 | 
13 | CC(N)CCNc1nc(Nc2ccc(C#N)nc2)ncc1C(F)(F)F (racemic) | 0.0269 | IC50 (MV4-11): 0.39 µM; IC50 (Z-138): 5.7 µM; inhibition at 10 µM (hERG (KCNH2)): 31.6%
14 | N#Cc1ncc(Nc2ncc(C(F)(F)F)cn2)cc1O[C@@H]1CCCNC1 | 1.01 | 
15 | CNc1nc(Nc2cnc(C#N)c(OCC3CCNCC3)c2)ncc1C(F)(F)F | 0.213 | 
16 | CNc1nc(Nc2cnc(C#N)c(O[C@H]3CCNC3)c2)ncc1C(F)(F)F | 0.045 | 

Row | Compound | IC50 [1] [µM] | also measured
17 | N#Cc1ccc(Nc2ncc(C(F)(F)F)c(N[C@@H]3CCCNC3)n2)cn1 | 0.831 | 
18 | CNc1nc(Nc2cnc(C#N)c(OC[C@@H]3CCCNC3)c2)ncc1C(F)(F)F | 0.244 | 
19 | CNc1nc(Nc2cnc(C#N)c(NC[C@@H]3CCCNC3)c2)ncc1C(F)(F)F | 0.11 | 
20 | N#Cc1ccc(Nc2ncc(C(F)(F)F)c(NC3CC4CCC(C3)N4)n2)cn1 (configuration not stated) | 0.624 | 
21 | CNc1nc(Nc2cnc(C#N)c(NC3CN4CCC3CC4)c2)ncc1C(F)(F)F (configuration not stated) | 0.608 | 
22 | N#Cc1ccc(Nc2ncc(C(F)(F)F)c(NCCCNC3CC3)n2)cn1 | 0.27 | 
23 | N#Cc1ccc(Nc2ncc(C(F)(F)F)c(NCCCNCCO)n2)cn1 | 0.217 | inhibition at 10 µM (hERG (KCNH2)): 35.2%
24 | N#Cc1ccc(Nc2ncc(C(F)(F)F)c(NCC3CCNCC3)n2)cn1 | 0.0655 | 
25 | N#Cc1ccc(Nc2ncc(C(F)(F)F)c(NCCCNC=O)n2)cn1 | 0.441 | 
26 | CNc1nc(Nc2cnc(C#N)c(N[C@@H]3CCCNC3)c2)ncc1C(F)(F)F | 0.0122 | IC50 (MV4-11): 0.05 µM; IC50 (Z-138): 0.72 µM; inhibition at 10 µM (hERG (KCNH2)): 81.1%
27 | CN1CCC(CNc2nc(Nc3ccc(C#N)nc3)ncc2C(F)(F)F)CC1 | 0.185 | 
28 | N#Cc1ccc(Nc2ncc(C(F)(F)F)c(N[C@H]3CC[C@@H](N)CC3)n2)cn1 | 0.0442 | inhibition at 10 µM (hERG (KCNH2)): 36.8%
29 | N#Cc1ccc(Nc2ncc(C(F)(F)F)c(NCC3CCCCN3)n2)cn1 (racemic) | 0.993 | 
30 | CNc1nc(Nc2cnc(C#N)c(N[C@H]3CC[C@H](N)CC3)c2)ncc1C(F)(F)F | 0.0331 | IC50 (MV4-11): 0.07 µM; IC50 (Z-138): 0.96 µM; inhibition at 10 µM (hERG (KCNH2)): 5.3%
31 | CNCCNc1cc(Nc2ncc(C(F)(F)F)c(NC)n2)cnc1C#N | 0.0279 | IC50 (MV4-11): 0.18 µM; IC50 (Z-138): 0.27 µM; inhibition at 10 µM (hERG (KCNH2)): 46.4%
